Source: the supplement of paper PMC10627819

How the values were obtained:
B. subtilis 168 [1] = experiment: fitness (endpoint OD595 vs no drug) (fraction); higher = more growth
Summary of the method: (§1)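 In 384-well plates at 37 °C, cultures began at OD595 0.01 in 30 µl, with 55 µl used for S. pneumoniae. OD595 readings every 30 min for 14 h were corrected by the first reading. Fitness divides the stationary-phase transition optical density by the robust mean of no-drug control wells. The result is capped at 1.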

S. aureus Newman [2] = experiment: as above
Summary of the method: as §1

S. pneumoniae D39V [3] = experiment: as above
Summary of the method: as §1

B. subtilis 168 [4] = experiment: Bliss interaction score (quartile over a dose matrix) (fitness difference); higher = more antagonism (negative = synergy)
Summary of the method: (§2)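 Growth was read as OD595 when cultures entered stationary phase, and each value was divided by the plate's robust no-drug mean and capped at 1. This normalised ratio is the fitness value, and fitness for each single drug came from the combination data. The Bliss score subtracts the expected fitness, taken as the product, from the observed fitness and is given as quartiles across technical, biological and donor/recipient replicates.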

S. aureus DSM 20231 = experiment: as above
Summary of the method: as §2

S. aureus Newman [5] = experiment: as above
Summary of the method: as §2

S. pneumoniae D39V [6] = experiment: as above
Summary of the method: as §2
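Throughout, for Bliss interaction score (quartile over a dose matrix): first quartile when negative (synergy) and third quartile when positive (antagonism).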
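Throughout, for fitness (endpoint OD595 vs no drug): OD595 on entry to stationary phase over no-drug wells; at most 1.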

O=C(O)c1cn(C2CC2)c2cc(N3CCNCC3)c(F)cc2c1=O [Ciprofloxacin] + Cc1onc(-c2ccccc2)c1C(=O)N[C@@H]1C(=O)N2[C@@H]1SC(C)(C)[C@@H]2C(=O)O [Oxacillin]
fitness (B. subtilis 168 [1]; first compound 0.0098 µg/mL, partner 0.002 µg/mL): 0.894
fitness (B. subtilis 168 [1]; first compound 0.0098 µg/mL, partner 0.004 µg/mL): 0.866
fitness (B. subtilis 168 [1]; first compound 0.0098 µg/mL, partner 0.0078 µg/mL, one replicate): 0.976
fitness (B. subtilis 168 [1]; first compound 0.0098 µg/mL, partner 0.008 µg/mL): 0.863
fitness (B. subtilis 168 [1]; first compound 0.0098 µg/mL, partner 0.0155 µg/mL, one replicate): 0.905
fitness (B. subtilis 168 [1]; first compound 0.0098 µg/mL, partner 0.031 µg/mL, one replicate): 0.965
fitness (B. subtilis 168 [1]; first compound 0.0098 µg/mL, partner 0.075 µg/mL, one replicate): 0.375
fitness (B. subtilis 168 [1]; first compound 0.0195 µg/mL, partner 0.002 µg/mL): 0.748
fitness (B. subtilis 168 [1]; first compound 0.0195 µg/mL, partner 0.004 µg/mL): 0.693
fitness (B. subtilis 168 [1]; first compound 0.0195 µg/mL, partner 0.0078 µg/mL, one replicate): 0.814
fitness (B. subtilis 168 [1]; first compound 0.0195 µg/mL, partner 0.008 µg/mL): 0.61
fitness (B. subtilis 168 [1]; first compound 0.0195 µg/mL, partner 0.0155 µg/mL, one replicate): 0.779
fitness (B. subtilis 168 [1]; first compound 0.0195 µg/mL, partner 0.031 µg/mL, one replicate): 0.729
fitness (B. subtilis 168 [1]; first compound 0.0195 µg/mL, partner 0.075 µg/mL, one replicate): 0.0252
fitness (B. subtilis 168 [1]; first compound 0.0195 µg/mL, partner 0.15 µg/mL, one replicate): 0.0469
fitness (B. subtilis 168 [1]; first compound 0.0195 µg/mL, partner 0.3 µg/mL, one replicate): 0.0517
fitness (B. subtilis 168 [1]; first compound 0.039 µg/mL, partner 0.002 µg/mL): 0.0478
fitness (B. subtilis 168 [1]; first compound 0.039 µg/mL, partner 0.004 µg/mL): 0.0457
fitness (B. subtilis 168 [1]; first compound 0.039 µg/mL, partner 0.0078 µg/mL, one replicate): 0.136
fitness (B. subtilis 168 [1]; first compound 0.039 µg/mL, partner 0.008 µg/mL): 0.054
fitness (B. subtilis 168 [1]; first compound 0.039 µg/mL, partner 0.0155 µg/mL, one replicate): 0.191
fitness (B. subtilis 168 [1]; first compound 0.039 µg/mL, partner 0.031 µg/mL, one replicate): 0.0978
fitness (B. subtilis 168 [1]; first compound 0.039 µg/mL, partner 0.075 µg/mL, one replicate): 0.0437
fitness (B. subtilis 168 [1]; first compound 0.039 µg/mL, partner 0.15 µg/mL, one replicate): 0.0478
fitness (B. subtilis 168 [1]; first compound 0.039 µg/mL, partner 0.3 µg/mL, one replicate): 0.0488
fitness (S. aureus Newman [2]; first compound 0.0375 µg/mL, partner 0.0156 µg/mL): 0.622
fitness (S. aureus Newman [2]; first compound 0.0375 µg/mL, partner 0.0312 µg/mL): 0.612
fitness (S. aureus Newman [2]; first compound 0.0375 µg/mL, partner 0.0625 µg/mL): 0.573
fitness (S. aureus Newman [2]; first compound 0.075 µg/mL, partner 0.0156 µg/mL): 0.635
fitness (S. aureus Newman [2]; first compound 0.075 µg/mL, partner 0.0312 µg/mL): 0.618
fitness (S. aureus Newman [2]; first compound 0.075 µg/mL, partner 0.0625 µg/mL): 0.494
fitness (S. aureus Newman [2]; first compound 0.15 µg/mL, partner 0.0156 µg/mL): 0.0645
fitness (S. aureus Newman [2]; first compound 0.15 µg/mL, partner 0.0312 µg/mL): 0.0732
fitness (S. aureus Newman [2]; first compound 0.15 µg/mL, partner 0.0625 µg/mL): 0.0443
fitness (S. pneumoniae D39V [3]; first compound 0.125 µg/mL, partner 0.005 µg/mL): 0.987
fitness (S. pneumoniae D39V [3]; first compound 0.125 µg/mL, partner 0.01 µg/mL): 0.969
fitness (S. pneumoniae D39V [3]; first compound 0.125 µg/mL, partner 0.02 µg/mL): 0.915
fitness (S. pneumoniae D39V [3]; first compound 0.125 µg/mL, partner 0.04 µg/mL): 0.535
fitness (S. pneumoniae D39V [3]; first compound 0.25 µg/mL, partner 0.005 µg/mL, one replicate): 0.989
fitness (S. pneumoniae D39V [3]; first compound 0.25 µg/mL, partner 0.01 µg/mL): 0.934
fitness (S. pneumoniae D39V [3]; first compound 0.25 µg/mL, partner 0.02 µg/mL): 0.844
fitness (S. pneumoniae D39V [3]; first compound 0.25 µg/mL, partner 0.04 µg/mL): 0.424
fitness (S. pneumoniae D39V [3]; first compound 0.5 µg/mL, partner 0.005 µg/mL): 0.815
fitness (S. pneumoniae D39V [3]; first compound 0.5 µg/mL, partner 0.04 µg/mL): 0.354
Bliss interaction score (B. subtilis 168 [4]): -0.0871
Bliss interaction score (S. aureus DSM 20231): 0.0341
Bliss interaction score (S. aureus Newman [5]): 0.0816

C[C@H]1c2cccc(O)c2C(=O)C2=C(O)[C@]3(O)C(=O)C(C(N)=O)=C(O)[C@@H](N(C)C)[C@@H]3[C@@H](O)[C@@H]21 [Doxycycline] + CC(=O)S[C@@H]1CC2=CC(=O)CC[C@]2(C)[C@H]2CC[C@@]3(C)[C@@H](CC[C@@]34CCC(=O)O4)[C@H]12 [Spironolactone]
Bliss interaction score (S. aureus DSM 20231): 0.239

Cn1c(=O)c2c(ncn2C)n(C)c1=O [Caffeine] + CC[C@H]1OC(=O)[C@H](C)C(=O)[C@H](C)[C@@H](O[C@@H]2O[C@H](C)C[C@H](N(C)C)[C@H]2O)[C@](C)(OC)C[C@@H](C)C(=O)[C@H](C)[C@H]2N(CCCCn3cnc(-c4cccnc4)c3)C(=O)O[C@]12C [Telithromycin]
Bliss interaction score (S. aureus DSM 20231): -0.372

CN(C)[C@@H]1C(O)=C(C(N)=O)C(=O)[C@@]2(O)C(O)=C3C(=O)c4c(O)ccc(Cl)c4[C@@](C)(O)[C@H]3C[C@@H]12 [Clortetracycline] + OCc1cc(C(O)CNCCCCCCOCCCCc2ccccc2)ccc1O [Salmeterol]
Bliss interaction score (S. aureus DSM 20231): -0.118

CC(C)c1c(C(=O)Nc2ccccc2)c(-c2ccccc2)c(-c2ccc(F)cc2)n1CC[C@@H](O)C[C@@H](O)CC(=O)O [Atorvastatin] + COc1cc(Cc2cnc(N)nc2N)cc(OC)c1OC [Trimethoprim]
Bliss interaction score (S. aureus DSM 20231): 0.453

CC(=O)Oc1ccccc1C(=O)O [Acetylsalicylicacid] + CC[C@H](c1ccc(O)cc1)[C@@H](CC)c1ccc(O)cc1 [Hexestrol]
Bliss interaction score (S. aureus DSM 20231): -0.455

COCCOC(=O)C1=C(C)NC(C)=C(C(=O)OC/C=C/c2ccccc2)C1c1cccc([N+](=O)[O-])c1 (stereo not drawn) [Cilnidipine] + CC[C@H]1OC(=O)[C@H](C)[C@@H](O[C@H]2C[C@@](C)(OC)[C@@H](O)[C@H](C)O2)[C@H](C)[C@@H](O[C@@H]2O[C@H](C)C[C@H](N(C)C)[C@H]2O)[C@](C)(OC)C[C@@H](C)C(=O)[C@H](C)[C@@H](O)[C@]1(C)O [Clarithromycin]
Bliss interaction score (S. aureus DSM 20231): -0.196

CC(C)c1c(C(=O)Nc2ccccc2)c(-c2ccccc2)c(-c2ccc(F)cc2)n1CC[C@@H](O)C[C@@H](O)CC(=O)O [Atorvastatin] + O=C(O[C@@H]1Cc2c(O)cc(O)cc2O[C@@H]1c1cc(O)c(O)c(O)c1)c1cc(O)c(O)c(O)c1 [EGCG]
Bliss interaction score (S. aureus DSM 20231): -0.118

CC(=O)Oc1cccc2c1C(=O)c1c(OC(C)=O)cc(C(=O)O)cc1C2=O [Diacerein] + CC(=O)NC[C@H]1CN(c2ccc(N3CCOCC3)c(F)c2)C(=O)O1 [Linezolid]
Bliss interaction score (S. aureus DSM 20231): -0.29

CC(C)c1c(C(=O)Nc2ccccc2)c(-c2ccccc2)c(-c2ccc(F)cc2)n1CC[C@@H](O)C[C@@H](O)CC(=O)O [Atorvastatin] + CC1(C)S[C@@H]2[C@H](NC(=O)Cc3ccccc3)C(=O)N2[C@H]1C(=O)O [PenicillinG]
Bliss interaction score (S. aureus DSM 20231): 0.402

CC(=O)Oc1ccccc1C(=O)O [Acetylsalicylicacid] + Cc1c(Cl)cccc1Nc1ccccc1C(=O)O [Tolfenamic]
Bliss interaction score (S. aureus DSM 20231): -0.263

Cn1c(=O)c2c(ncn2C)n(C)c1=O [Caffeine] + CCC[C@@H]1C[C@@H](C(=O)N[C@@H]([C@H]2O[C@H](SC)[C@H](O)[C@@H](O)[C@H]2O)[C@H](C)Cl)N(C)C1 [Clindamycin]
Bliss interaction score (S. aureus DSM 20231): -0.251

CC(C)c1c(C(=O)Nc2ccccc2)c(-c2ccccc2)c(-c2ccc(F)cc2)n1CC[C@@H](O)C[C@@H](O)CC(=O)O [Atorvastatin] + CO[C@@]12[C@H](COC(N)=O)C3=C(C(=O)C(C)=C(N)C3=O)N1C[C@@H]1N[C@@H]12 [MitomycinC]
Bliss interaction score (S. aureus DSM 20231): 0.187

CN(C)[C@@H]1C(O)=C(C(N)=O)C(=O)[C@@]2(O)C(O)=C3C(=O)c4c(O)ccc(Cl)c4[C@@](C)(O)[C@H]3C[C@@H]12 [Clortetracycline] + CC(=O)S[C@@H]1CC2=CC(=O)CC[C@]2(C)[C@H]2CC[C@@]3(C)[C@@H](CC[C@@]34CCC(=O)O4)[C@H]12 [Spironolactone]
Bliss interaction score (S. aureus DSM 20231): 0.196

CO/N=C(\C(=O)N[C@@H]1C(=O)N2C(C(=O)O)=C(COC(N)=O)CS[C@H]12)c1ccco1 [Cefuroxime] + C/C(=C\C(=O)OCCCCCCCCC(=O)O)C[C@@H]1OC[C@H](C[C@@H]2O[C@H]2[C@@H](C)[C@H](C)O)[C@@H](O)[C@H]1O [Pseudomonic acid]
Bliss interaction score (B. subtilis 168 [4]): 0.074
Bliss interaction score (S. pneumoniae D39V [6]): 0.0629

COCCOC(=O)C1=C(C)NC(C)=C(C(=O)OC/C=C/c2ccccc2)C1c1cccc([N+](=O)[O-])c1 (stereo not drawn) [Cilnidipine] + CCC[C@@H]1C[C@@H](C(=O)N[C@@H]([C@H]2O[C@H](SC)[C@H](O)[C@@H](O)[C@H]2O)[C@H](C)Cl)N(C)C1 [Clindamycin]
Bliss interaction score (S. aureus DSM 20231): -0.221

C[C@H]1c2cccc(O)c2C(=O)C2=C(O)[C@]3(O)C(=O)C(C(N)=O)=C(O)[C@@H](N(C)C)[C@@H]3[C@@H](O)[C@@H]21 [Doxycycline] + CCCSc1nc(N[C@@H]2C[C@H]2c2ccc(F)c(F)c2)c2nnn([C@@H]3C[C@H](OCCO)[C@@H](O)[C@H]3O)c2n1 [Ticagrelor]
Bliss interaction score (S. aureus DSM 20231): -0.272

CC(C)c1c(C(=O)Nc2ccccc2)c(-c2ccccc2)c(-c2ccc(F)cc2)n1CC[C@@H](O)C[C@@H](O)CC(=O)O [Atorvastatin] + CO/N=C(\C(=O)N[C@@H]1C(=O)N2C(C(=O)O)=C(COC(C)=O)CS[C@H]12)c1csc(N)n1 [Cefotaxime]
Bliss interaction score (S. aureus DSM 20231): -0.17

Cn1c(=O)c2c(ncn2C)n(C)c1=O [Caffeine] + O=C(N[C@H](CO)[C@H](O)c1ccc([N+](=O)[O-])cc1)C(Cl)Cl [Chloramphenicol]
Bliss interaction score (S. aureus DSM 20231): -0.3

CO/N=C(\C(=O)N[C@@H]1C(=O)N2C(C(=O)O)=C(COC(N)=O)CS[C@H]12)c1ccco1 [Cefuroxime] + CCCSc1nc(N[C@@H]2C[C@H]2c2ccc(F)c(F)c2)c2nnn([C@@H]3C[C@H](OCCO)[C@@H](O)[C@H]3O)c2n1 [Ticagrelor]
Bliss interaction score (S. aureus DSM 20231): 0.137

CN(C)[C@@H]1C(O)=C(C(N)=O)C(=O)[C@@]2(O)C(O)=C3C(=O)c4c(O)ccc(Cl)c4[C@@](C)(O)[C@H]3C[C@@H]12 [Clortetracycline] + COc1ccc(CCN(C)CCCC(C#N)(c2ccc(OC)c(OC)c2)C(C)C)cc1OC [Verapamil]
Bliss interaction score (S. aureus DSM 20231): 0.243
